The supplement of paper PMC13207355

Experiments:
Details in all cases: exposure time: 72 h
[1] = tested on: E13 (patient-derived glioblastoma stem cells of classical subtype); assay: surviving fraction (nuclei count normalised to DMSO); higher = more cells surviving (less toxic)
[2] = tested on: E21 (patient-derived glioblastoma stem cells of mesenchymal subtype); assay: as above
[3] = tested on: E28 (patient-derived glioblastoma stem cells of classical subtype); assay: as above
[4] = tested on: E31 (patient-derived glioblastoma stem cells of proneural subtype); assay: as above
[5] = tested on: E34 (patient-derived glioblastoma stem cells of proneural subtype); assay: as above
[6] = tested on: E57 (patient-derived glioblastoma stem cells of mesenchymal subtype); assay: as above
[7] = tested on: FT3469 (normal neural stem cell line); assay: as above
[8] = tested on: E13; assay: phenotypic distance (Euclidean, principal components) from DMSO controls (arbitrary units); higher = stronger morphological change
[9] = tested on: E21; assay: as above
[10] = tested on: E28; assay: as above
[11] = tested on: E31; assay: as above
[12] = tested on: E34; assay: as above
[13] = tested on: E57; assay: as above
[14] = tested on: FT3469; assay: as above
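Throughout, for phenotypic distance (Euclidean, principal components) from DMSO controls: cell Painting imaging in 384-well plates, CellProfiler features reduced to at least 20 principal components, Euclidean distance versus same-plate DMSO vehicle wells (0.1% v/v), median over six images per well.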
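Throughout, for surviving fraction (nuclei count normalised to DMSO): nuclei counted by high-content imaging of Hoechst-stained cells in laminin-coated 384-well plates, relative to 0.1% DMSO vehicle wells, with staurosporine as cell-death control.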

O=C1CCc2cc(OCCCCc3nnnn3C3CCCCC3)ccc2N1 [Cilostazol]
Details	phenotypic distance	surviving fraction
[1], 4.1 nM	–	0.989
[1], 12.3 nM	–	1.04
[1], 37 nM	–	1.01
[1], 111.1 nM	–	0.931
[1], 333.3 nM	–	0.933
[1], 1000 nM	–	0.98
[1], 3000 nM	–	0.897
[2], 4.1 nM	–	0.933
[2], 12.3 nM	–	1.09
[2], 37 nM	–	1.03
[2], 111.1 nM	–	1.04
[2], 333.3 nM	–	0.973
[2], 1000 nM	–	0.949
[2], 3000 nM	–	0.934
[3], 4.1 nM	–	0.916
[3], 12.3 nM	–	1.13
[3], 37 nM	–	0.892
[3], 111.1 nM	–	1.2
[3], 333.3 nM	–	1.01
[3], 1000 nM	–	1.12
[3], 3000 nM	–	0.914
[4], 4.1 nM	–	0.919
[4], 12.3 nM	–	1.04
[4], 37 nM	–	0.905
[4], 111.1 nM	–	0.98
[4], 333.3 nM	–	0.963
[4], 1000 nM	–	0.832
[4], 3000 nM	–	0.832
[5], 4.1 nM	–	0.904
[5], 12.3 nM	–	1.1
[5], 37 nM	–	0.938
[5], 111.1 nM	–	0.937
[5], 333.3 nM	–	1.05
[5], 1000 nM	–	1.04
[5], 3000 nM	–	0.959
[6], 4.1 nM	–	0.991
[6], 12.3 nM	–	0.969
[6], 37 nM	–	0.975
[6], 111.1 nM	–	1.04
[6], 333.3 nM	–	0.91
[6], 1000 nM	–	0.839
[6], 3000 nM	–	0.817
[7], 4.1 nM	–	1.03
[7], 12.3 nM	–	1.03
[7], 37 nM	–	0.96
[7], 111.1 nM	–	1.02
[7], 333.3 nM	–	0.949
[7], 1000 nM	–	1.16
[7], 3000 nM	–	0.891
[8], 4.1 nM	0.5	–
[8], 12.3 nM	0.664	–
[8], 37 nM	1.06	–
[8], 111.1 nM	0.612	–
[8], 333.3 nM	0.287	–
[8], 1000 nM	0.5	–
[8], 3000 nM	0.553	–
[9], 4.1 nM	0.676	–
[9], 12.3 nM	1.17	–
[9], 37 nM	1.02	–
[9], 111.1 nM	1.46	–
[9], 333.3 nM	0.998	–
[9], 1000 nM	1.13	–
[9], 3000 nM	1.15	–
[10], 4.1 nM	0.648	–
[10], 12.3 nM	0.777	–
[10], 37 nM	0.65	–
[10], 111.1 nM	1.01	–
[10], 333.3 nM	1.82	–
[10], 1000 nM	0.846	–
[10], 3000 nM	0.458	–
[11], 4.1 nM	0.904	–
[11], 12.3 nM	0.814	–
[11], 37 nM	0.863	–
[11], 111.1 nM	0.598	–
[11], 333.3 nM	0.893	–
[11], 1000 nM	0.881	–
[11], 3000 nM	0.868	–
[12], 4.1 nM	0.293	–
[12], 12.3 nM	0.701	–
[12], 37 nM	0.573	–
[12], 111.1 nM	1.28	–
[12], 333.3 nM	0.55	–
[12], 1000 nM	0.46	–
[12], 3000 nM	0.733	–
[13], 4.1 nM	0.508	–
[13], 12.3 nM	0.665	–
[13], 37 nM	0.802	–
[13], 111.1 nM	0.893	–
[13], 333.3 nM	1.16	–
[13], 1000 nM	1.49	–
[13], 3000 nM	1.42	–
[14], 4.1 nM	0.483	–
[14], 12.3 nM	0.448	–
[14], 37 nM	0.352	–
[14], 111.1 nM	0.643	–
[14], 333.3 nM	3.23	–
[14], 1000 nM	0.826	–
[14], 3000 nM	0.541	–
